Measurements published in publication PMC6685155, “Simultaneous UPLC–TQ-MS/MS determination of six active components in rat plasma: application in the pharmacokinetic study of Cyclocarya paliurus leaves” (Chinese Medicine, 2019).

Experiment: Pharmacokinetic study in rats after oral administration of the CP extract (UPLC–TQ-MS/MS of plasma)
Format: in vivo
Settings: male, Sprague-Dawley, rat plasma, single oral gavage of CP extract 10.5 g/kg, n=6, mean ± SD; for Cmax: non-compartmental
Method: Plasma samples were thawed at room temperature before analysis. Then, 10 μl of IS solution (20 μg/ml) and 200 μl of methanol were added to the plasma sample (90 μl) in a 1.5 ml Eppendorf tube. The mixture was vortexed for 1 min and centrifuged at 12,000×g for 10 min at 4 °C to deproteinize. Thereafter, 2 μl of the supernatant was injected into the UPLC–TQ/MS system for analysis.
Six healthy male Sprague–Dawley rats were fasted for 12 h with free access to water prior to the experiment. The CP extract was administered to rats by oral gavage at a dose of 10.5 g/kg body weight. Blood samples of approximately 0.5 ml were collected at 15 and 30 min and at 1 h, 2 h, 3 h, 4 h, 6 h, 8 h, 10 h, 12 h, and 24 h in heparinized centrifuge tubes from the ophthalmic vein using a sterile capillary tube under anesthesia after oral administration of the CP extract. Following centrifugation at 4000×g for 10 min at 4 °C, plasma samples were transferred to polypropylene tubes and stored at − 80 °C until analysis.
The concentrations of six analytes in plasma at different time points were expressed as mean ± SD, which was calculated from the daily calibration curve. All the pharmacokinetic parameters were processed through non-compartmental analysis using the DAS 3.0 pharmacokinetic program. The maximum plasma concentration (Cmax) and time to reach the maximum concentrations (Tmax) were obtained directly from the curve.

AUC(0-inf)	AUC(0-t)	Tmax	half-life	Cmax	SMILES
91.7 ± 15.2 ng·h/mL	79.8 ± 28.5 ng·h/mL	0.46 ± 0.1 h	11.7 ± 6.01 h	28.6 ± 8.23 ng/mL	O=c1c(O)c(-c2ccc(O)c(O)c2)oc2cc(O)cc(O)c12 [Quercetin, quercetin]
325 ± 104 ng·h/mL	242 ± 77 ng·h/mL	0.67 ± 0.26 h	7.24 ± 1.63 h	122 ± 49.9 ng/mL	O=c1c(O)c(-c2ccc(O)cc2)oc2cc(O)cc(O)c12 [Kaempferol, kaempferol]
3580 ± 1200 ng·h/mL	3310 ± 1060 ng·h/mL	0.39 ± 0.13 h	2.54 ± 0.53 h	4170 ± 1890 ng/mL	O=C(/C=C/c1ccc(O)c(O)c1)O[C@@H]1C[C@](O)(C(=O)O)C[C@@H](O)[C@H]1O [Chlorogenic acid, chlorogenic acid]
13500 ng·h/mL	11000 ng·h/mL	0.33 ± 0.13 h	10 ± 3.31 h	3710 ± 1590 ng/mL	O=C(O)[C@H]1O[C@@H](Oc2c(-c3ccc(O)c(O)c3)oc3cc(O)cc(O)c3c2=O)[C@H](O)[C@@H](O)[C@@H]1O [Quercetin-3-O-glucuronide, quercetin-3-O-glucuronide]
2470 ± 943 ng·h/mL	2450 ± 952 ng·h/mL	0.32 ± 0.12 h	4.54 ± 1.38 h	4330 ± 1610 ng/mL	O=C(/C=C/c1ccc(O)c(O)c1)O[C@@H]1C[C@@](O)(C(=O)O)C[C@@H](O)[C@@H]1O [Neochlorogenic acid, neochlorogenic acid]
